Measured values published in patent publication US11903912B2, “Composition for preventing and treating breast cancer including selenopsammaplin A as active ingredients” (Seoul National University R & DB Foundation, priority 2019, dated 2024).
pIC50: −log10 of the molar value.

What was measured:
breast tumors = test: Breast tumor growth in xenograft mouse model; format: in vivo, nude BALB/c mice
Experimental: Breast cancer cells were injected into fat pads of nude BALB/c mice (8-week-old, female). When the tumor size reached about 200 mm^3, the compound was injected intraperitoneally three times a week. The tumor volume was calculated by the following equation: [volume […]=(L×W2)/2] and illustrated in FIG. 8A. 38 days after administration began, the mice were sacrificed and tumors were extracted, and the weights thereof were measured and illustrated in FIG. 8B. The body weights of the mice measured during the experiment are illustrated in FIG. 8C.

[1] = system: H3K79me2, E-cadherin, vimentin in breast tumors; test: Cancer metastasis markers in tumor tissues, western blot; format: in vivo; conditions: tumors extracted from treated mice
Experimental: To verify that compound 2 is involved in the regulation of key factors such as H3K79me2, E-cadherin, and vimentin in vivo, the effect of compound 2 on the key factors in tumor tissues was analyzed using the following method.
The triple-negative breast cancer cell line MDA-MB-231 was spread at a concentration of 2×10^6 cells/well on a DMEM medium containing 10% FBS in a 6-well plate, cultured at 37° C. for 24 hours under a 5% CO2 condition, and then washed twice with phosphate-buffered saline (PBS). Attached cells were recovered and washed twice with PBS, and then boiling 2× sample loading buffer (250 mM Tris-HCl (pH 6.8), 4% SDS, 10% glycerol, 0.006% bromophenol blue, 2% β-mercaptoethanol, 50 mM sodium fluoride, and 5 mM sodium orthovanadate) was added thereto to disrupt the cells and the cells were left at 100° C. for 10 minutes. After cooling, the cells were stored at […] and […] at 37° C. immediately before use in protein quantification and electrophoresis. 10 μg of proteins were electrophoresed at 100 V for 2 hours using a 12% SDS-polyacrylamide gel (#456-1036, Bio-Rad, Hercules, Calif.). The separated proteins were transferred to a PVDF membrane (ISEQ15150, Millipore, Bedford, Mass.) at 100 V for 1 hour, and a blocking buffer (5% non-fat dry milk in TBS containing 0.1% Tween-20 (TBST)) was injected thereinto to culture the proteins at room temperature for 1 hour. After washing three times with TBST for 5 minutes, the corresponding single antibody was diluted with 5% non-fat dry milk in TBST and allowed to react with the membrane at 4° C. for 18 hours. The membrane [ISEQ 1S150, Millipore, Bedford, Mass.] was washed three times with TBST for 10 minutes, and then horseradish peroxidase (HRP)-conjugated secondary antibodies were diluted with 2.5% non-fat dry milk in TBST at a ratio of 1:2,000 and allowed to react with the membrane at room temperature for 2 hours. […] These were quantified using ImageJ software and are illustrated in FIG. 10B.

[2] = system: A549 human lung cancer cells; test: SRB cytotoxicity test, A549; format: cell-based; conditions: SRB assay, cultured 3 days
Experimental: (§1) A cytotoxicity test was performed using synthesized selenopsammaplin A and derivatives thereof (Lee S K et al […] Chem Biol Interact 115:215-28).
(§2) The cytotoxicity test was performed on a total of five representative cancer cell lines. The cytotoxicity of each compound was measured using an SRB assay method (human lung cancer cells, A549; human colon cancer cells, HCT116; human breast cancer cells, MDA-MB231; human liver cancer cells, SK-HEP-1; human gastric cancer cells, SNU638).
(§3) Each cell line was sub-cultured once or twice using Roswell Park Memorial Institute (RPMI) medium 1640 (RPMI 1640) or Dulbecco's Modified Eagle's Medium (DMEM) containing 10% fetal bovine serum (FBS) inactivated by heat, 100 units/mL of penicillin, 100 μg/mL of streptomycin, and 250 ng/mL of amphotericin B at 37° C. for 1 week under a 5% CO2 condition. All cells were […] in liquid nitrogen, and then passaged three or more times to be used in the experiment. The effects of compounds on cell growth were measured using a sulforhodamine B (SRB) method (Lee et al (1998) Chemico-Biol Interact 115:215-228).
(§4) Specifically, each human cancer cell line used in the present invention was sub-cultured in an RPMI medium containing 10% FBS, 1% PSF, and the like, and 10 μl of a sample dissolved in 10% DMSO and 190 μl (4-5×10^4 cells/ml) of the cell suspension were added to each well of a 96-well plate and cultured for 3 days. 190 μl of the cell suspension was added to at least 16 wells and cultured for 30 minutes, and used as a zero-day control. The cultured cells were fixed with 10% trichloroacetic acid (TCA) and then stained with an SRB solution, and the staining solution was dissolved with 10 mM Tris-base, and then absorbance at 515 nm was measured. Using the case of culturing in 10% DMSO as a control, cell viability according to each test material treatment was measured using Equation 1 below. Etoposide was used as a positive control. % Viability=(OD(sample)−OD(0-day))/(OD(10% DMSO)−OD(0-day))×100 [Equation 1]
(§5) Assuming that a control not-treated with the sample was set at 100%, the values of sample-treated groups were expressed as percentage with respect to the control, and each test material treatment results were obtained as the mean±SEM of two or three tests. The IC50 value is the concentration of the test material for a 50% survival rate.

breast cancer metastasis = test: Breast cancer metastasis to organs in animal model, IVIS; format: in vivo, nude BALB/c mice; conditions: 5 mg/kg, 15 mg/kg
Text: Organs such as the lungs, liver, spleen, and kidneys were extracted from the animal model of Example 8, and the degrees of cancer metastasis in the control and the administered groups were indirectly photographed using IVIS (PerkinElmer) and are illustrated in FIG. 9.

[3] = system: HCT116 human colon cancer cells; test: SRB cytotoxicity test, HCT116; format: cell-based; conditions: SRB assay, cultured 3 days
Experimental: as §1, §2, §3, §4, §5

## O=C(NCC[Se][Se]CCNC(=O)/C(Cc1ccccc1)=N/O)/C(Cc1ccccc1)=N/O [Compound 2, (2E,2′E)-N,N′-(diselenediylbis(ethane-2,1-diyl))bis(2-(hydroxyimino)-3-phenylpropanamide)]
Breast tumors; 38 days after administration began, compared to control, psammaplin A and paclitaxel groups
  tumor weight: remarkably reduced
Breast tumors; intraperitoneally three times a week, compared to the control
  tumor volume: remarkably reduced
Breast tumors; measured during the xenograft experiment
  body weights of the mice: not affected
[1]
  E-cadherin in breast tumors: increased in a concentration-dependent manner
  histone methylation (H3K79me2) in breast tumors: reduced in a concentration-dependent manner
  vimentin in breast tumors: reduced in a concentration-dependent manner
[2]
  pIC50: 7.10
Breast cancer metastasis
  degree of metastasis to each organ (lungs, liver, spleen, kidneys): significantly reduced
  degree of metastasis to the lungs: greatly reduced
[3]
  pIC50: 7.05
